Values joined by “and” are separate entries in the source; they are usually repeats but may differ in a detail not shown here. Equal entries are not always repeated.
Test system: S. cerevisiae
Experiment: Batch fermentation of amino acid detoxified loblolly pine hydrolysates by Baker yeast
Assay type: cell-based, Saccharomyces cerevisiae
Details: hydrolysates detoxified with amino acid 0.2% w/v, pH 6.0, 60° C., 2 hours
Excerpt: Loblolly pine (Pinus taeda) wood chips (1.0×1.0 cm, L×W) were collected by Forest Products Laboratory at Auburn University, located in Auburn, Ala. Dilute acid pretreatment was used to produce biomass hydrolysates in a 4.0 L Parr batch reactor (Parr Instrument Co., Moline, Ill.) as previously described (Lai, C. H., Tu, M. B., Li, M., Yu, S. Y. 2014. Remarkable solvent and extractable lignin effects on enzymatic digestibility of organosolv pretreated hardwood. Bioresource Technology, 156, 92-98). Briefly, wood chips (400 grams, dry weight) were soaked in 1% (w/w) sulfuric acid overnight (7:1 liquor/solid ratio) prior to the pretreatment, and then loaded into a reactor and treated at 170° C. for 60 minutes.
To achieve higher ethanol titer in fermentation, loblolly pine hydrolysates were concentrated to approximately one-third of its original volume using a rotary evaporator (IKA RV10 basic) at 40° C. and 60 rotations per minute (rpm). The hydrolysates were first adjusted to pH 4.0 before evaporation. After the concentration, the sugar contents of the hydrolysates were analyzed by HPLC.
[…] The detoxification experiments were performed in a 250 mL flask and placed in a temperature-controlled water batch.
Baker yeast (Fleischmann's), S. cerevisiae, was used for all the fermentation experiments in this study. The yeast was maintained on YDP medium containing (g/L): 20 glucose, 20 peptone, 10 yeast extract and 20 agar. Isolated colony was grown in YDP liquid medium overnight and harvested as fermentation inoculum. The yeast concentration was measured using an UV-vis spectrophotometer. Inoculum of 2.0 g/L was used for all fermentation experiments.
Batch fermentation was carried out in 125 mL serum bottles containing 50 mL broths (untreated or detoxified hydrolysates, untreated or detoxified cinnamaldehyde sugar solution) without any additional nutrient supplement. All the fermentation broths were adjusted to pH 6 with NaOH or H2SO4 and sterilized by passing 0.2 μm sterile filters. After inoculation, the serum bottle was sealed with rubber stopper and aluminum seal, and equipped with cannulas for CO2 release. All fermentation experiments were incubated at 30° C., spun at 150 rpm in a shaker (E24, New Brunswick Scientific). Aliquots of samples were withdrawn at 0, 1, 3, 6, 9, 12, 24, 36 and 48 hours for the time course analysis of both starting material and products. Fermentation was carried out in duplicate. The volumetric ethanol productivity and initial consumption rate of glucose (RG) and mannose (RM) was calculated based on the sugar consumed in the first 6 h of fermentation as described previously (Cao, D. X., Tu, M. B., Xie, R., Li, J., Wu, Y. N., Adhikari, S. 2014. Inhibitory Activity of Carbonyl Compounds on Alcoholic Fermentation by Saccharomyces cerevisiae. Journal of Agricultural and Food Chemistry, 62(4), 918-926).
Ethanol, acetic acid, levulinic acid, formic acid, furfural and HMF were analyzed using an Aminex HPX-87H column (300×7.8 mm) with a refractive index detector. The elution conditions were column temperature of 45° C. and flow rate of 0.6 ml/min with 5.0 mM H2SO4 as the mobile phase in a 60 min isocratic run.

## N[C@@H](CCC(=O)O)C(=O)O [Glutamate, glutamate]
  CEtOH, ethanol final concentration at 48 h: 3.63 ± 0.23 g/L
  CHMF, percentage of HMF consumed at 48 h: 15.40 ± 0.72%
  QEtOH, volumetric ethanol productivity in the first 6 h: 0.41 ± 0.01 g/L/h
  RG, glucose consumption rate in the first 6 h: 0.34 ± 0.02 g/L/h
  RM, mannose consumption rate in the first 6 h: 0.56 ± 0.03 g/L/h
  YEtOH, ethanol yield from total glucose and mannose at 48 h: 0.07 ± 0.00 g/g

## NC(=O)CC[C@H](N)C(=O)O [Glutamine, glutamine]
  CEtOH, ethanol final concentration at 48 h: 3.52 ± 0.06 g/L
  CHMF, percentage of HMF consumed at 48 h: 13.38 ± 0.99%
  QEtOH, volumetric ethanol productivity in the first 6 h: 0.40 ± 0.00 g/L/h
  RG, glucose consumption rate in the first 6 h: 0.38 ± 0.02 g/L/h
  RM, mannose consumption rate in the first 6 h: 0.73 ± 0.01 g/L/h
  YEtOH, ethanol yield from total glucose and mannose at 48 h: 0.06 ± 0.01 g/g

## N[C@@H](CO)C(=O)O [Serine, serine]
  CEtOH, ethanol final concentration at 48 h: 3.87 ± 0.08 g/L
  CHMF, percentage of HMF consumed at 48 h: 15.66 ± 0.11%
  QEtOH, volumetric ethanol productivity in the first 6 h: 0.45 ± 0.00 g/L/h
  RG, glucose consumption rate in the first 6 h: 0.38 ± 0.00 g/L/h
  RM, mannose consumption rate in the first 6 h: 0.65 ± 0.13 g/L/h
  YEtOH, ethanol yield from total glucose and mannose at 48 h: 0.07 ± 0.00 g/g

## NC(=O)C[C@H](N)C(=O)O [Asparagine, asparagine]
  CEtOH, ethanol final concentration at 48 h: 11.18 ± 0.15 g/L
  QEtOH, volumetric ethanol productivity in the first 6 h: 0.58 ± 0.01 g/L/h
  RG, glucose consumption rate in the first 6 h: 0.65 ± 0.01 g/L/h
  RM, mannose consumption rate in the first 6 h: 0.87 ± 0.10 g/L/h
Listed as asparagine
  CEtOH, ethanol final concentration at 48 h: 11.18 g/L
  RG, glucose consumption rate in the first 6 h: 0.65 g/L/h
  RM, mannose consumption rate in the first 6 h: 0.87 g/L/h

## CC[C@H](C)[C@H](N)C(=O)O [Isoleucine, isoleucine]
  CEtOH, ethanol final concentration at 48 h: 5.03 ± 1.46 g/L
  CHMF, percentage of HMF consumed at 48 h: 17.36 ± 3.50%
  QEtOH, volumetric ethanol productivity in the first 6 h: 0.44 ± 0.08 g/L/h
  RG, glucose consumption rate in the first 6 h: 0.37 ± 0.02 g/L/h
  RM, mannose consumption rate in the first 6 h: 0.66 ± 0.06 g/L/h
  YEtOH, ethanol yield from total glucose and mannose at 48 h: 0.09 ± 0.03 g/g

## N=C(N)NCCC[C@H](N)C(=O)O [Arginine, arginine]
  CEtOH, ethanol final concentration at 48 h: 2.62 ± 0.03 g/L
  CHMF, percentage of HMF consumed at 48 h: 12.69 ± 0.27%
  QEtOH, volumetric ethanol productivity in the first 6 h: 0.34 ± 0.01 g/L/h
  RG, glucose consumption rate in the first 6 h: 0.29 ± 0.02 g/L/h
  RM, mannose consumption rate in the first 6 h: 0.59 ± 0.07 g/L/h
  YEtOH, ethanol yield from total glucose and mannose at 48 h: 0.05 ± 0.00 g/g

## CC(C)[C@H](N)C(=O)O [Valine, valine]
  CEtOH, ethanol final concentration at 48 h: 2.69 ± 0.18 g/L
  CHMF, percentage of HMF consumed at 48 h: 12.66 ± 1.50%
  QEtOH, volumetric ethanol productivity in the first 6 h: 0.32 ± 0.00 g/L/h
  RG, glucose consumption rate in the first 6 h: 0.25 ± 0.00 g/L/h
  RM, mannose consumption rate in the first 6 h: 0.49 ± 0.03 g/L/h
  YEtOH, ethanol yield from total glucose and mannose at 48 h: 0.05 ± 0.00 g/g

## N[C@@H](Cc1c[nH]c2ccccc12)C(=O)O [Tryptophan, tryptophan]
  CEtOH, ethanol final concentration at 48 h: 11.59 ± 0.25 g/L
  QEtOH, volumetric ethanol productivity in the first 6 h: 0.63 ± 0.01 g/L/h
  RG, glucose consumption rate in the first 6 h: 0.69 g/L/h and 0.69 ± 0.00 g/L/h
  RM, mannose consumption rate in the first 6 h: 0.89 g/L/h and 0.89 ± 0.04 g/L/h
Listed as tryptophan
  CEtOH, ethanol final concentration at 48 h: 11.59 g/L

## N[C@@H](CC(=O)O)C(=O)O [Aspartate, aspartate]
  CEtOH, ethanol final concentration at 48 h: 3.86 ± 0.18 g/L
  CHMF, percentage of HMF consumed at 48 h: 16.27 ± 0.30%
  QEtOH, volumetric ethanol productivity in the first 6 h: 0.47 ± 0.00 g/L/h
  RG, glucose consumption rate in the first 6 h: 0.43 ± 0.02 g/L/h
  RM, mannose consumption rate in the first 6 h: 0.90 ± 0.01 g/L/h
  YEtOH, ethanol yield from total glucose and mannose at 48 h: 0.07 ± 0.00 g/g
